Measured values published in patent publication US8691945B2, “Antimicrobial peptides” (Singapore Health Services Pte Ltd., priority 2006, dated 2014).
Where no end group is shown, it is not given here. The star is where a group is joined. Acm = CC(=O)NC*

Tests used:
[1] = Molecular hydrophobicity by RP-HPLC-MS retention time, C-terminus analogs; format: physicochemical; settings: 1 mg/ml; gradient 2-15.5% in 30 mins then 15.5-31% in 3 mins of eluent B (ACN)
Experimental: The overall molecular hydrophobicity of the C-terminus hBD3 analogs were measured by RP-HPLC-MS in terms of retention time at 1 mg/ml (Table 4 and FIG. 14). RP-HPLC is an approach that is commonly employed for such comparisons of peptides or amino acid side chains among antibacterial peptides. Since the stationary phase of C18-modified silica is hydrophobic and the mobile phase (water-acetonitrile) is hydrophilic, longer retention times should be correlated with higher hydrophobicity. The measured order for the molecular hydrophobicity of the peptides is as follows: W2>F2>L2>I2>Y2>V2>C2>H2.

[2] = test system: Bacillus cereus NCTC 2599; test: Antimicrobial assay, bacteria growth in liquid broth with serially diluted peptides; format: cell-based; settings: B cereus, NCTC2599; for vLD50: concentration of peptide at which 50% of the viable cells are killed
Experimental: (§1) The bacteria assayed included Escherichia coli ATCC 25922, Staphylococcus aureus ATCC 25923, Pseudomonas aeruginosa ATCC 27853, Bacillus cereus NCTC 2599. Sterile flat-bottom, 96-well tissue culture plates (92096, TPP) was used for assay. The inner surface of microplate cover was treated with 0.05% Triton X-100 in 20% ethanol to prevent condensation of water droplets. Growth kinetics in 96-well microplates was monitored (as turbidity) with the Tecan Genios Plus microplate reader using software Magellan v5.03 and 620-nm filter. Seed culture was monitored on Pharmacia Biotech Ultrospec 2000 UV/Visible spectrophotometer using 600-nm wavelength. Antibacterial activities of the analogs and wild-type hBD3 were determined for E. coli, B. cereus, S. aureus and P. aeruginosa by measuring bacteria growth in liquid broth in the presence of the serially diluted peptides. The LD50 is the concentration of peptide at which 50% of the viable cells are killed.
(§2) The bacteria were grown to mid-logarithmic phase in Mueller-Hinton Broth (MHB) from overnight plate culture. The cell suspension was diluted to OD 0.1 (600 nm, Pharmacia Biotech Ultropec 2000 UV/Visible spectrophotometer) in mixture of 10 mM Pot Phos buffer/MHB (equal volume (PMH). This cell suspension gave a concentration of 10^7 CFU/ml. Colony count was done for confirmation. A 10-fold dilution series of this suspension ranging from 10^7 to 10^1 CFU/ml was made in PMH (in sextuplicate for Staphylococcus aureus ATCC 25923 and Bacillus cereus NCTC 2599; in quadruplicate for Escherichia coli ATCC 25922 and in triplicate for Pseudomonas aeruginosa ATCC 27853). The final volume per well was 200 ul. For negative control well, 200 ul of uninoculated PMH was added.
(§3) LD50, LD90, LD99 and LD99.9 of wild-type hBD3 and its linear analogs were determined against two Gram-negative (E. Coli and P. aeruginosa) and two Gram-positive (B. cereus, S. aureus) (Table 3). See also FIGS. 7(A, B, C and D).

[3] = test system: Escherichia coli ATCC 25922; test: as above; format: cell-based; settings: E coli, ATCC25922; for vLD50: concentration of peptide at which 50% of the viable cells are killed
Experimental: as §1, §2, §3

[4] = test system: Pseudomonas aeruginosa ATCC 27853; test: as above; format: cell-based; settings: P aeruginosa, ATCC27853; for vLD50: concentration of peptide at which 50% of the viable cells are killed
Experimental: as §1, §2, §3

[5] = test system: Staphylococcus aureus ATCC 25923; test: as above; format: cell-based; settings: Staph aureus, ATCC25923; for vLD50: concentration of peptide at which 50% of the viable cells are killed
Experimental: as §1, §2, §3

[6] = test system: E. coli, B. cereus, S. aureus and P. aeruginosa; test: Antimicrobial assay, statements pooled over the four pathogens; format: cell-based; settings: in comparison with hBD3
Experimental: as §1
The bacteria were grown to mid-logarithmic phase in Mueller-Hinton Broth (MHB) from overnight plate culture. […]
LD50, LD90, LD99 and LD99.9 of wild-type hBD3 and its linear analogs were determined against two Gram-negative (E. Coli and P. aeruginosa) and two Gram-positive (B. cereus, S. aureus) (Table 3). […]

[7] = Molecular hydrophobicity by HPLC-MS retention time, full-length analogs; format: physicochemical; parameters: unit: min; settings: average of three tries, one value per charged fragment
Experimental: Molecular hydrophobicity of peptides was measured by HPLC-MS at the same experimental conditions, e.g., the same peptide concentration (500 or 100 μg/ml), loading (5 μl) and flow rate of 0.2 ml/min in the same gradient 18-38% of eluant A in 32 min and relatively compared in term of retention time (Rt) of product peak.
In comparison with native hBD3, this series of linear analogs of hBD3 with full-length and 11 net positive charge are structurally homogenous as they are designed and synthesized only by uniform replacement of six bridging cysteine residues in hBD3 with other six residues with different hydrophobicity, e.g., A, S, C(Acm), F, Y and W. These linear analogs provide a well-defined model for testing the effect of overall hydrophobicity, second structure and linearity/or constraint imposed by three disulfide bridges on antibacterial, cytotoxicity and hemolytic activities. We have measured the relative molecular hydrophobicity by HPLC-MS in term of retention time (tR) at 500 ug/ml and 100 ug/ml (Table 2) and overall hydrophobicity were calculated based on the hydrophobicity scale of Wilmley and White and Hopp-Woods Scale, respectively. The change trend of overall hydrophobicity, which is calculated based on two different scale, generally fits well, and the HPLC result matches the calculations very well. The general order for the relative molecular hydrophobicity of peptides is as following: W6>F6>Y6>native hBD3>A6>S6>C(Acm)6. […] In the following sections, we will discuss the effect of overall hydrophobicity of peptide on biological activities.

Substance | Overall hydrophobicity in terms of ACN % of peak [1] [%] | Overall hydrophobicity in terms of Retention time (UV peak) [1] [min] | vLD90 [2] [µg/mL] | vLD99 [2] [µg/mL] | vLD99.9 [2] [µg/mL] | vLD50 [2] [µg/mL] | vLD90 [3] [µg/mL] | vLD99 [3] [µg/mL] | vLD99.9 [3] [µg/mL] | vLD50 [3] [µg/mL] | vLD90 [4] [µg/mL] | vLD99 [4] [µg/mL] | vLD99.9 [4] [µg/mL] | vLD50 [4] [µg/mL] | vLD90 [5] [µg/mL] | vLD99 [5] [µg/mL] | vLD99.9 [5] [µg/mL] | vLD50 [5] [µg/mL] | other results
RGRKC(Acm)C(Acm)RRKK [Peptide C2, 10-residue C-terminus fragment analog of hBD3] | 9.67 | 17.05 | – | – | – | – | – | – | – | – | – | – | – | – | – | – | – | – | –
RGRKHHRRKK (10 aa hBD3 derived peptide (C terminus), C replaced with H) [Peptide H2, 10-residue C-terminus fragment analog of hBD3] | 7.15 | 11.45 | – | – | – | – | – | – | – | – | – | – | – | – | – | – | – | – | –
GIINTLQKYYC(Acm)RVRGGRC(Acm)AVLSC(Acm)LPKEEQIGKC(Acm)STRGRKC(Acm)C(Acm)RRKK-OH [C(Acm)6, GIINTLQKYY C(Acm)6RVRGGR C(Acm)6AVLS C(Acm)6LPKEEQIGK C(Acm)6STRGRK C(Acm)6C(Acm)6RRKK] | – | – | 28.3 | 47.8 | 49.8 | 19.6 | 23.8 | 24.9 | 42 | 18.7 | 21.7 | 24.7 | 25 | 11.2 | 46.8 | 91 | >100 | 25 | antibacterial potency in words [6]: relatively less potency; Relative hydrophobicity in term of retention time (Rt) in HPLC-MS, Average ([7]; 100 ug/ml): 20.94; Relative hydrophobicity in term of retention time (Rt) in HPLC-MS, Average ([7]; 500 ug/ml, fragment m/z 799.3): 20.12; Relative hydrophobicity in term of retention time (Rt) in HPLC-MS, Average ([7]; 500 ug/ml, fragment m/z 932.4): 20.15; Relative hydrophobicity in term of retention time (Rt) in HPLC-MS, Average ([7]; 500 ug/ml, fragment m/z 1118.8): 20.11
GIINTLQKYYCRVRGGRCAVLSCLPKEEQIGKCSTRGRKCCRRKK (disulfide (positions not given here); also: three disulfide bonds, pairing not given here; listed as Homo sapiens) [whbd3, wild type human β-defensin 3 with three disulfide bonds, used as control, reference compound] | – | – | 5.8 | 6.2 | 6.2 | 3.9 | 11.8 | 12.4 | 12.5 | 9.3 | 5.7 | 11.4 | 12.4 | 2.7 | 10.7 | 12.2 | 12.5 | 5.5 | Relative hydrophobicity in term of retention time (Rt) in HPLC-MS, Average ([7]; 100 ug/ml, listed as Wild-type hBD3, fragment m/z 860.2): 24.28; Relative hydrophobicity in term of retention time (Rt) in HPLC-MS, Average ([7]; 100 ug/ml, listed as Wild-type hBD3, fragment m/z 1032.2): 24.29; Relative hydrophobicity in term of retention time (Rt) in HPLC-MS, Average ([7]; 500 ug/ml, listed as Wild-type hBD3, fragment m/z 860.2): 23.24; Relative hydrophobicity in term of retention time (Rt) in HPLC-MS, Average ([7]; 500 ug/ml, listed as Wild-type hBD3, fragment m/z 1032.2): 23.28
RGRKIIRRKK (10 aa hBD3 derived peptide (C terminus), C replaced with I) [Peptide I2, 10-residue C-terminus fragment analog of hBD3] | 11.96 | 22.13 | – | – | – | – | – | – | – | – | – | – | – | – | – | – | – | – | –
RGRKFFRRKK (10 aa hBD3 derived peptide (C terminus), C replaced with F) [Peptide F2, 10-residue C-terminus fragment analog of hBD3] | 14.78 | 28.41 | – | – | – | – | – | – | – | – | – | – | – | – | – | – | – | – | –
